Measurements published in ChEMBL document CHEMBL1201862, “PubChem BioAssay data set” (2004).
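Briefly, cells in 96-well plates were exposed to five compound concentrations for 48 h, and endpoints were estimated by linear interpolation. GI50: concentration for 50% inhibition of growth.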 Calls of active or inactive are those of the source. No stated cut-off is given here; in the data, active = GI50 up to about 1.1 µM and inactive = higher.

Key:
Test in all cases: DTP human tumour cell line panel, 48 h
[1] = tested on: LOX IMVI
[2] = tested on: CCRF-CEM
[3] = tested on: SN12C
[4] = tested on: SW-620
[5] = tested on: HCT-116
[6] = tested on: SNB-19
[7] = tested on: EKVX
[8] = tested on: DU-145
[9] = tested on: SNB-75
[10] = tested on: M14
[11] = tested on: NCI-H23
[12] = tested on: HOP-62
[13] = tested on: MDA-N
[14] = tested on: OVCAR-8
[15] = tested on: HT-29
[16] = tested on: OVCAR-5
[17] = tested on: A549
[18] = tested on: SR
[19] = tested on: PC-3

Measured: GI50

O=C(COc1cc(=O)oc2ccccc12)c1ccccc1
inactive: [1] 41.1 µM | [2] 71.6 µM | [3] > 100 µM | [4] 44.8 µM | [5] 17.9 µM | [6] 21.7 µM | [7] > 100 µM | [8] > 100 µM | [9] 26.4 µM | [10] 42 µM | [11] 25.2 µM | [12] 37.8 µM | [13] 47 µM | [14] 33 µM | [15] 22.6 µM | [16] > 100 µM | [17] 97.3 µM | [18] > 100 µM

O=C(NC(=O)c1cn(CCN2CCNCC2)c(=O)[nH]c1=O)OCc1ccccc1
inactive: [1] > 100 µM | [2] > 100 µM | [3] > 100 µM | [4] > 100 µM | [5] > 100 µM | [7] > 100 µM | [9] 68.9 µM | [10] > 100 µM | [11] > 100 µM | [12] > 100 µM | [14] > 100 µM | [15] > 100 µM | [16] > 100 µM | [17] > 100 µM | [18] > 100 µM

Clc1ccc(CSC2=NCCN2)cc1Cl
inactive: [1] 13.8 µM | [2] 5.36 µM | [3] 15.2 µM | [4] 16.2 µM | [5] 14.9 µM | [6] 32.3 µM | [7] 8.89 µM | [8] 14.7 µM | [10] 15.2 µM | [11] 15.6 µM | [12] 23.4 µM | [13] 11.7 µM | [19] 10.4 µM | [14] 15.9 µM | [15] 14.2 µM | [16] 19.3 µM | [17] 27 µM

COc1ccc([S+]([O-])Cc2cc(OC)ccc2OC)cc1 (stereo not given)
inactive: [1] > 100 µM | [2] > 100 µM | [3] > 100 µM | [4] > 100 µM | [5] > 100 µM | [6] > 100 µM | [7] > 100 µM | [8] > 100 µM | [9] > 100 µM | [10] > 100 µM | [11] > 100 µM | [12] > 100 µM | [13] > 100 µM | [19] > 100 µM | [14] > 100 µM | [15] > 100 µM | [16] > 100 µM | [17] > 100 µM

Cc1ccc(S(=O)(=O)N/N=C2/C3CC4CCC2C4C3)cc1 (stereo not given)
inactive: [1] > 100 µM | [3] > 100 µM | [4] > 100 µM | [5] > 100 µM | [7] > 100 µM | [8] > 100 µM | [9] > 100 µM | [10] > 100 µM | [11] > 100 µM | [12] > 100 µM | [13] > 100 µM | [19] > 100 µM | [14] > 100 µM | [15] > 100 µM | [16] > 100 µM | [17] > 100 µM

N#Cc1c(-c2ccc(Cl)cc2)cc(-c2ccc(Nc3ccnc4cc(Cl)ccc34)cc2)nc1N
inactive: [4] > 100 µM | [5] > 100 µM | [6] 28.8 µM | [7] > 100 µM | [8] > 100 µM | [9] > 100 µM | [10] > 100 µM | [11] > 100 µM | [12] > 100 µM | [19] > 100 µM | [14] 40.1 µM | [16] > 100 µM | [17] > 100 µM | [18] 5.45 µM

COc1cc2c(c3oc(-c4ccc5c(c4)OCO5)c(O)c(=O)c13)CCC(C)(C)O2
inactive: [1] > 100 µM | [2] 79.8 µM | [3] > 100 µM | [4] > 100 µM | [6] > 100 µM | [7] > 100 µM | [9] 12.3 µM | [10] > 100 µM | [11] > 100 µM | [14] > 100 µM | [15] > 100 µM | [17] > 100 µM

C/C(=N\N=C(N)N)c1c(C(=O)OCCCCCCOC(=O)c2nc3sccn3c2/C(C)=N/N=C(N)N)nc2sccn12
inactive: [1] 98.2 µM | [2] 20.5 µM | [3] > 100 µM | [4] > 100 µM | [5] > 100 µM | [6] 63.8 µM | [7] > 100 µM | [9] 44.7 µM | [10] > 100 µM | [11] 46.1 µM | [13] > 100 µM | [19] > 100 µM | [14] 42.9 µM | [15] > 100 µM | [16] > 100 µM | [17] > 100 µM | [18] 18.3 µM

CC(C)(C)OC(=O)C1/C(=C/CO)CN1C(=O)OC(C)(C)C (stereo not given)
inactive: [1] > 100 µM | [2] 76.2 µM | [3] > 100 µM | [4] > 100 µM | [5] > 100 µM | [6] > 100 µM | [7] > 100 µM | [10] > 100 µM | [11] > 100 µM | [12] > 100 µM | [13] > 100 µM | [19] > 100 µM | [14] > 100 µM | [15] > 100 µM | [16] > 100 µM | [17] > 100 µM | [18] 90.8 µM

CC(O)=C1C(=O)CCC1=O
inactive: [1] > 100 µM | [2] > 100 µM | [3] > 100 µM | [4] > 100 µM | [5] > 100 µM | [6] > 100 µM | [7] > 100 µM | [8] > 100 µM | [9] > 100 µM | [10] > 100 µM | [11] > 100 µM | [12] > 100 µM | [19] > 100 µM | [14] > 100 µM | [15] > 100 µM | [16] > 100 µM | [17] > 100 µM | [18] > 100 µM

COc1cc(/C=N/n2c(Cc3ccc(Cl)cc3)n[nH]c2=O)cc(OC)c1OC
inactive: [2] > 100 µM | [3] > 100 µM | [4] > 100 µM | [5] > 100 µM | [6] > 100 µM | [7] > 100 µM | [9] 65.2 µM | [10] > 100 µM | [11] > 100 µM | [12] 37.6 µM | [13] > 100 µM | [19] > 100 µM | [14] 26.5 µM | [15] > 100 µM | [16] > 100 µM | [17] > 100 µM

NC(=O)N/N=C\c1ccccc1OCc1cccc(COc2ccccc2/C=N\NC(N)=O)n1
inactive: [1] 46.1 µM | [2] > 100 µM | [3] > 100 µM | [4] > 100 µM | [5] 33.9 µM | [6] 30.8 µM | [7] 18 µM | [8] 18.8 µM | [10] 49.2 µM | [11] 30.1 µM | [12] 12.4 µM | [13] > 100 µM | [19] 86.9 µM | [14] 63.1 µM | [15] > 100 µM | [16] 41.2 µM | [17] > 100 µM
